Where “and” joins values, the source holds several entries; their conditions need not be identical. Equal entries are not always repeated. Marks after values point to notes of the source that are not given here.
Tests used:
[1] = Description: Necropsy took place approximately one hour after the second injection. Blood and brain samples were collected for both the mother and fetuses.
piglets = conditions: versus allopurinol or deferoxamine; cited from earlier work
[2] = average of 4 litters, maternal dose 55 mg/kg sc, 55 mg/kg
[3] = average of 4 maternal rats, 55 mg/kg sc, 55 mg/kg
[4] = pooled female fetuses per maternal rat, maternal dose 55 mg/kg sc, 55 mg/kg
[5] = pooled male fetuses per maternal rat, maternal dose 55 mg/kg sc, 55 mg/kg

N=C1N[C@H]2[C@H](CS[C@H]2CCCCC(=O)O)N1 [Formulation 2-IB, 2-iminobiotin]
mortality of maternal animals ([1]; 55 mg/kg sc, Day 20 post-coitum): No mortality occurred
2-IB concentration in brain, female fetuses, average (±SD) [1, 2]: 369 ng/g and 369 (±72) ng/g
2-IB concentration in brain, male fetuses, average (±SD) [1, 2]: 329 ng/g and 329 (±72) ng/g
2-IB plasma concentration, female fetuses, average (±SD) [1, 2]: 1,903 ng/mL and 1,903 (±437) ng/mL
2-IB plasma concentration, male fetuses, average (±SD) [1, 2]: 1,765 ng/mL and 1,765 (±259) ng/mL
2-IB concentration in brain, maternal, average (±SD) [1, 3]: 268 ng/g and 268 (±92) ng/g
2-IB plasma concentration, maternal, average (±SD) [1, 3]: 10,039 ng/mL and 10,039 (±3371) ng/mL
2-IB concentration in brain sample, maternal ([1]; individual maternal Wistar rats, 55 mg/kg sc, 55 mg/kg): 151 ng/g and 375 ng/g and 270 ng/g and 276 ng/g
2-IB plasma concentration, maternal ([1]; individual maternal Wistar rats, Day 20 post-coitum, 2 sc injections of 27.5 mg/kg, approximately one hour after second injection, 27.5 mg/kg): 7,104 ng/mL and 14,185 ng/mL and 7,490 ng/mL and 11,378 ng/mL
2-IB concentration in brain sample, pooled fetuses (females) [1, 4]: 474 (n = 3) ng/g and 317 (n = 8) ng/g and 329 (n = 4) ng/g and 356 (n = 7) ng/g
2-IB plasma concentration, pooled fetuses (females) [1, 4]: 2,442* (n = 3) ng/mL and 2,063 (n = 8) ng/mL and 1,474 (n = 4) ng/mL and 1,634 (n = 7) ng/mL
2-IB concentration in brain sample, pooled fetuses (males) [1, 5]: 287 (n = 8) ng/g and 435 (n = 4) ng/g and 283 (n = 5) ng/g and 309 (n = 8) ng/g
2-IB plasma concentration, pooled fetuses (males) [1, 5]: 1,868 (n = 8) ng/mL and 2,080 (n = 4) ng/mL and 1,598 (n = 5) ng/mL and 1,512 (n = 8) ng/mL
transfer over the placenta and the blood-brain barrier ([1]; two sc injections, total dose level 55 mg/kg): confirmed
effectiveness in preventing and/or treating effects of perinatal asphyxia (piglets): more effective
